Measurements published in patent publication US12139473B2, “Substituted-N-heteroaryl compounds and uses thereof” (Bionomics Limited, priority 2019, dated 2024).

Assays:
hKv3.1 = molecular target: T1, hKv3.1 (Homo sapiens, UniProt P48547); experiment: Automated patch clamp electrophysiology (Patchliner), CHO/Kv3.1 cells; assay type: cell-based; details: 10 μM compound, hKv3.1 in CHO-K1, whole-cell; for Kv3.1 Activity at 10 μM Potentiation (%): peak current at voltage step of −10 mV vs vehicle (0.33% DMSO); for Kv3.1 Activity at 10 μM Voltage Shift (mV): voltage shift of the IV curve at V1/2
T1 construct: expressed in transfected cells
T1 sequence (P48547 1-511): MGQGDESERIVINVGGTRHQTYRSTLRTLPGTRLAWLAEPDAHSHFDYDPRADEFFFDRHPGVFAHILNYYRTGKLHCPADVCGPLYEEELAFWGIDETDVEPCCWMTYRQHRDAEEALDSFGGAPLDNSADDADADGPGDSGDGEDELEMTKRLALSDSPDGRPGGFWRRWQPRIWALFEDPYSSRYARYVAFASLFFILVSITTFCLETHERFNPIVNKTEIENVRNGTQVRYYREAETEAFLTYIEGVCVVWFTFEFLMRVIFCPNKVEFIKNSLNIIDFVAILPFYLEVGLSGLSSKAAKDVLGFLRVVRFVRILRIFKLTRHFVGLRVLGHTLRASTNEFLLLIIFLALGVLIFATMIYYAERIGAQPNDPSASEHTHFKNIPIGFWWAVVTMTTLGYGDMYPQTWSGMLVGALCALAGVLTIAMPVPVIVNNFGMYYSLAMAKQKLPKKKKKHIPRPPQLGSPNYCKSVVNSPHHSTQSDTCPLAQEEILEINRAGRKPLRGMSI
Description: (§1) hKv3.1, hKv3.2, hKv3.3, and hKv3.4 were stably expressed in CHO-K1 (Chinese hamster ovary) cells and kept under constant antibiotic selection. For in vitro assays, cells were maintained in appropriate growth medium at 37° C. and 5% CO2 in a humidified incubator.
(§2) hKv3.X expressing cells were plated in T-25 flasks for 3-4 days at 37° C. (no selection antibiotic) prior to use and grown to 80% confluence. Cells were washed twice with PBS (calcium and magnesium free) and detached with a 5-minute treatment at 37° C. with 2-3 mls of Accutase®. Cells were collected, and flask was washed in CHO-SFM II media (Life Technologies Gibco), centrifuged for 2 minutes at ˜110×g and resuspended to obtain a single cell suspension of ˜2-3×10^6 cells/ml.
(§3) The intracellular solution contained the following (in mM): KCl 50, NaCl 10, KF 60, EGTA 20, HEPES 10, adjusted to pH 7.2 with KOH and an osmolarity of 285 mOsmol. Seal enhancer was purchased from Nanion (80 mM NaCl, 3 mM KCl, 10 mM MgCl2, 35 mM CaCl2), 10 mM HEPES, pH7.4, 298 mOsmol. The external solution contained (in mM): NaCl 140, KCl 4, CaCl2) 2, MgCl2 1, HEPES 10, Glucose 5, adjusted to pH7.4 and an osmolarity of 298 mOsmol.
(§4) All compounds were initially tested at 10 uM at a final DMSO concentration of 0.33%. Compounds were dissolved in dimethylsulfoxide (DMSO) at a stock concentration of 30 mM. The compound was further diluted 1:10 to give a stock concentration of 3 mM in DMSO. The final assay solution was diluted 1:300 in External solution to give a final concentration of 10 uM. For the DMSO Control Buffer 30 uL of DMSO was added to 10 mL buffer.
(§5) All electrophysiological recordings were performed at ambient temperature (21-23° C.) using automated patch clamp (Patchliner, Nanion Technologies GmbH) in the whole-cell configuration.
(§6) Cell membrane potentials were held at −80 mV, and currents were evoked by voltage steps (1000 ms duration) from −60 to +60 mV in 10 mV increments. This was performed first with vehicle (0.33% DMSO) and then with 10 uM compound, after a 3-minute incubation period. Data was taken from 4 cells per assay.
(§7) The recordings were analysed and selected using peak current amplitude (>100 pA at the −10 mV voltage step) in the absence of compound to eliminate unsuitable cells from analysis. Peak current amplitude was measured and recorded for each voltage step and data was normalised to the maximum current at +60 mV. The normalised Kv3.x currents following addition of the compound were then compared with the currents recorded prior to compound addition (vehicle control). Positive modulation was determined as % potentiation at the voltage step of −10 mV=[current (cmpd)/current (veh)]*100−100. % potentiation≥50% was considered acceptable. In addition, voltage shift of the IV curve at V1/2 was measured. V1/2 of ≥−5 mV was also considered acceptable. IV curves were plotted in GraphPad Prism (software version 6.0) and fitted with a Boltzmann equation, where V1/2 is the voltage at half-maximal activation.

hKv3.2 = molecular target: T2, hKv3.2 (Homo sapiens, UniProt Q96PR1); experiment: Automated patch clamp electrophysiology (Patchliner), CHO/Kv3.2 cells; assay type: cell-based; details: 10 μM compound, hKv3.2 in CHO-K1, whole-cell; for activation at 10 µM: peak current at voltage step of −10 mV vs vehicle (0.33% DMSO), read-out: Kv3.2 Activity at 10 μM Potentiation (%); for Kv3.2 Activity at 10 μM Voltage Shift (mV): voltage shift of the IV curve at V1/2
T2 construct: expressed in transfected cells
T2 sequence (Q96PR1 1-638): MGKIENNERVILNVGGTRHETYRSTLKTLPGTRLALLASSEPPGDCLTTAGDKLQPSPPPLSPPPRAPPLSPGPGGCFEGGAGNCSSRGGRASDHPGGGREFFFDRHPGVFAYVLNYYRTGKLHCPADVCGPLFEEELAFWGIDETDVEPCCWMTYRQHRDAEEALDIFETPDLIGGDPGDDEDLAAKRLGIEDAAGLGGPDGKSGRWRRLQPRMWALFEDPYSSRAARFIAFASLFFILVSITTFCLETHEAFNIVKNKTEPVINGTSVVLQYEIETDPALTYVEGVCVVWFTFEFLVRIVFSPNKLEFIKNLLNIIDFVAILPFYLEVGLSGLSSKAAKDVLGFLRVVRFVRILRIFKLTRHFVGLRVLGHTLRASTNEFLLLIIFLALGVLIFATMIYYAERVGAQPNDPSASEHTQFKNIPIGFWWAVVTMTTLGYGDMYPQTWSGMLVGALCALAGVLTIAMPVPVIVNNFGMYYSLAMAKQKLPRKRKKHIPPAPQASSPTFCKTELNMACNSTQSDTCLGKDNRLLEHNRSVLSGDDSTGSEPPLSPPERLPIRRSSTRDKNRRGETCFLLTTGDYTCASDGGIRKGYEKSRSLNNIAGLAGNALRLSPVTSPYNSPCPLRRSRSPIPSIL
Description: as §1, §2, §3, §4, §5, §6, §7

Row | Structure (SMILES) | Kv3.1 Activity at 10 μM Potentiation (%) (hKv3.1) | Kv3.1 Activity at 10 μM Voltage Shift (mV) (hKv3.1) | activation at 10 µM (hKv3.2) [%] | Kv3.2 Activity at 10 μM Voltage Shift (mV) (hKv3.2)
1 | COc1cc(Oc2nccc(N3C(=O)NC(C)(C)C3=O)n2)ccc1C(F)(F)F [Example 65, 3-[2-[3-methoxy-4-(trifluoromethyl)-phenoxy]pyrimidin-4-yl]-5,5-dimethyl-imidazolidine-2,4-dione] | 32 | −2.7 | 35 | −2.8 mV
2 | COc1cc(Oc2cncc(N3C(=O)NC(C)(C)C3=O)n2)ccc1C [Example 53, 3-[6-(3-methoxy-4-methyl-phenoxy)pyrazin-2-yl]-5,5-dimethyl-imidazolidine-2,4-dione] | 52 | −4.0 | 49 | −6.0 mV
3 | Cc1ccc(Oc2cc(N3C(=O)NC(C)(C)C3=O)ncn2)c2c1OCC21CC1 [Example 47, 5,5-dimethyl-3-[6-(7-methylspiro[2H-benzofuran-3,1′-cyclopropane]-4-yl)oxypyrimidin-4-yl]imidazolidine-2,4-dione] | 36 | −2.8 | 54 | −4.9 mV
4 | COc1cc(Oc2cc(N3C(=O)NC4(CCCC4)C3=O)ncn2)ccc1F [Example 14, 3-[6-(4-fluoro-3-methoxy-phenoxy)pyrimidin-4-yl]-1,3-diazaspiro[4.4]nonane-2,4-dione] | 43 | −2.3 | 42 | −1.1 mV
5 | Cc1ccc(Oc2cc(N3C(=O)NC(C)(C)C3=O)ncn2)cc1F [Example 16, 3-[6-(3-fluoro-4-methyl-phenoxy)pyrimidin-4-yl]-5,5-dimethyl-imidazolidine-2,4-dione] | 63 | −4.2 | 24 | −2.8 mV
6 | COc1cc(Oc2nccc(N3C(=O)NC(C)(C)C3=O)n2)ccc1Cl [Example 66, 3-[2-(4-chloro-3-methoxy-phenoxy)pyrimidin-4-yl]-5,5-dimethyl-imidazolidine-2,4-dione] | – | – | 54 | −3.5 mV
7 | COc1cc(Oc2cc(N3C(=O)NC(C)(C)C3=O)ncn2)ccc1F [Example 13, 3-[6-(3-methoxy-4-fluoro-phenoxy)pyrimidin-4-yl]-5,5-dimethyl-imidazolidine-2,4-dione] | 40 | −2.7 | 86 | −9.2 mV
8 | COc1cc(Oc2cc(N3C(=O)NC4(CCCCC4)C3=O)ncn2)ccc1F [Example 15, 3-[6-(4-fluoro-3-methoxy-phenoxy)pyrimidin-4-yl]-1,3-diazaspiro[4.5]decane-2,4-dione] | 17 | −2.7 | 1 | −0.3 mV
9 | COc1cc(Oc2nccc(N3C(=O)NC4(CCCCC4)C3=O)n2)ccc1C [Example 74, 3-[2-(3-methoxy-4-methyl-phenoxy)pyrimidin-4-yl]-1,3-diazaspiro[4.5]decane-2,4-dione] | 41 | −3.8 | 12 | −1.6 mV

Next, values leading:

Row | Kv3.1 Activity at 10 μM Potentiation (%) (hKv3.1) | Kv3.1 Activity at 10 μM Voltage Shift (mV) (hKv3.1) | activation at 10 µM (hKv3.2) [%] | Kv3.2 Activity at 10 μM Voltage Shift (mV) (hKv3.2) | Structure (SMILES)
10 | 2 | −1.5 | -7 | +1.6 mV | COc1cc(Oc2ccnc(N3C(=O)NC4(CCCCC4)C3=O)n2)ccc1C [Example 50, 3-[4-(3-methoxy-4-methyl-phenoxy)pyrimidin-2-yl]-1,3-diazaspiro[4.5]decane-2,4-dione]
11 | 45 | −5.5 | 25 | −4.3 mV | COc1cc(Oc2cc(N3C(=O)NC(C)(C)C3=O)ncn2)ccc1C [Example 1, 3-[6-(3-methoxy-4-methyl-phenoxy)pyrimidin-4-yl]-5,5-dimethyl-imidazolidine-2,4-dione]
12 | 61 | −6.9 | 39 | −4.6 mV | CC[C@H]1NC(=O)N(c2nccc(Oc3ccccc3-c3ccccc3)n2)C1=O [Example 58, (5R)-5-ethyl-3-[4-(2-phenylphenoxy)pyrimidin-2-yl]imidazolidine-2,4-dione]
13 | 50 | −4.2 | 25 | −2.3 mV | COc1cc(Oc2nccc(N3C(=O)NC(C)(C)C3=O)n2)ccc1C [Example 63, 3-[2-(3-methoxy-4-methyl-phenoxy)pyrimidin-4-yl]-5,5-dimethyl-imidazolidine-2,4-dione]
14 | 26 | −5.0 | 35 | −4.6 mV | CC[C@H]1NC(=O)N(c2nccc(Oc3ccc(C)c(OC)c3)n2)C1=O [Example 56, (5R)-5-ethyl-3-[4-(3-methoxy-4-methyl-phenoxy)pyrimidin-2-yl]imidazolidine-2,4-dione]
